Results reported in patent publication US4666907A, “Phenothiazine and derivatives and analogs and use as leukotriene biosynthesis inhibitors” (Merck Frosst Canada, Inc., priority 1986, dated 1987).
Converted amounts (≈) assume the structure as drawn. Where two headings read alike, the source gives them in different places. Values belong to the compound of their own block, whether it stands above or below them.

What was measured:
[1] = system: LTB4 formation in rat PMN; test: Rat polymorphonuclear leukocyte (P.M.N.) assay, LTB4 formation; assay type: cell-based; details: A-23187, LTB4
Description: Rats under ether anesthesia are injected (i.p.) with 8 ml of a suspension of sodium caseinate (6 grams in ca. 50 ml water). After 15-24 hours the rats are sacrificed (CO2) and the cells from the peritoneal cavity are recovered by lavage with 20 ml of buffer (Eages MEM containing 30 mM HEPES adjusted to pH 7.4 with NaOH). The cells are pelleted (350×g, 5 min.), resuspended in buffer with vigorous shaking, filtered through lens paper, recentrifuged and finally suspended in buffer at a concentration of […]. A 500 μl aliquot of PMN suspension and test compound are preincubated for 2 minutes at 37° C., followed by the addition of 10 μM A-23187. The suspension is stirred for an additional 4 minutes then bioassayed for LTB4 content by adding an aliquot to a second 500 μl portion of the PMN at 37° C. The LTB4 produced in the first incubation causes aggregation of the second PMN, which is measured as a change in light transmission. The size of the assay aliquot is chosen to give a submaximal transmission change (usually […]) for the untreated control. The percentage inhibition of LTB4 formation is calculated from the ratio of transmission change in the sample to the transmission change in the compound-free control.

[2] = system: sensitized guinea pig trachea; test: Antigen challenge 'in vitro' assay (egg albumin-induced contraction of sensitized tracheal chains); assay type: cell-based; details: Cavia porcellus
Description: Male guinea pigs weighing 300-350 g were sensitized by injecting (i.p.) 0.5 ml of a suspension containing 0.4 mg of egg albumin (Ovalbumin, Grade V, Sigma Chemical Co.) and 4.0 g aluminum hydroxide in 19.6 ml of saline. Two weeks were permitted for sensitization to occur.
Three sensitized guinea pigs were stunned and exsanguinated. The tracheas were removed, freed of adhering tissue and divided longitudinally by cutting through the cartilaginous tissue directly opposite the muscle insertion. Each opened trachea was then transected between every second cartilage. Four of the cut sections were tied together, end to end in a series with No. 0.7 silk thread ensuring that the tracheal muscles were all in the same vertical plane. Thus, each chain consisted of tissue from three different animals.
The chain so formed was then suspended under 1 g of tension (by silk ties at each end) in a 20 ml organ bath containing 10 ml of modified^1 Krebs-Henseleit buffer solution gassed with 95% O2 and 5% CO2 at 37° C. Mepyramine (0.55 μg/ml) and indomethacin (2.67 μg/ml were added to the buffer to avoid the contribution of histamine receptors and cyclooxygenase products to the contraction. To record responses one end of the tracheal chain was attached to a Gould Statham UC-2 force displacement transducer which was connected to a Beckman Type R-dynograph.The preparations were allowed to equilibrate for one hour during which time the tissues were automatically washed (10 ml volume displacement) ever 6 minutes.
After the equilibration period the tissues were primed with methacholine (3 μg/lml; 1.5×10^-5 M), washed and allowed to recover to baseline. The tissues were treated again with a second dose of methacholine, washed, allowed to return to baseline and washed for an additional hour.
Two chains were used as a control. These were incubated in a concentration of egg albumin sufficient to induce an average contraction of 50-80% of the methacholine response.
Each compound to be tested was added to two other baths (at a final concentration in each bath of 10 μg/ml or lower) 15 minutes prior to challenging the fresh chains with egg albumin.
The response of the challenged tissue was expressed as a percentage of the methacholine maximum. The % inhibition for each compound was then calculated. Compounds which at 10 μg/ml (final concentration) inhibited the egg albumin response by 50% or more were retested at a lower concentration.

[3] = system: Mouse peritoneal macrophages; test: Mouse macrophage assay (zymosan-stimulated arachidonic acid metabolites, Leukotriene C4); assay type: cell-based; details: read-out: Macrophage IC50
Description: Mouse peritoneal macrophages were treated sequentially with arachidonic acid (labelled with tritium); the compound being evaluated as an inhibitor, and a stimulator (zymosan). Metabolites derived from arachidonic acid (PGE2, 6-Keto PG-F1@ and Leukotriene C4) were separated from the incubation medium by extraction and chromatography, and then quantitated by determining the amount of radioactivity (cpm) associated with each of them. […] (This protocol is identical to that described in the reference except that the radioactivity herein associated with the LTC4 was determined by counting an aliquot of the final aqueous solution directly rather than chromatographing it first).
Reference: Humes, J. L. et al., J. Biol. Chem. 257, 1591-4 (1982).

asthmatic rats = test: Asthmatic rat assay (duration of dyspnoea after egg albumin aerosol); assay type: in vivo; details: po; for inhibition in vivo at 3 mg/kg: 3 mg/kg p.o.; for inhibition in vivo at 1.5 mg/kg: 1.5 mg/kg p.o.
From the text: Rats were obtained from an inbred line of asthmatic rats. Both female and male rats from 200 to 300 g were used.
Egg albumin (EA), grade V, crystallized and lyophilized, was obtained from Sigma Chemical Co., St. Louis. Bordetella pertussis vaccine, containing 30×10^9 killed bacteria per ml was obtained from the Institut Armand-Frappier, Laval des Rapides, Quebec. Aluminum hydroxide was obtained from the Regeis Chemical Company, Chicago.
The challenge and subsequent respiratory recordings were carried out in a clear plastic box with internal dimensions 10×6×4 inches. The top of the box was removable; in use, it was held firmly in place by four clamps and an airtight seal was maintained by a soft rubber gasket. […] A Fleisch No. 0000 pneumotachograph was inserted into one end of the box and coupled to a Grass volumetric pressure transducer (PT5-A) which was then connected to a Beckman Type R Dynograph through appropriate couplers. While aerosilizing the antigen, the outlets were open and the pneumotachograph was isolated from the chamber. The outlets were closed and the pneumotachograph and the chamber were connected during the recording or the respiratory patterns. For challenge, 2 ml of a 3% solution of antigen in saline was placed into each nebulizer and the aerosol was generated with air from a small Potter diaphragm pump operating at 10 psi and a flow of 8 liters/minutes.
Rats were sensitized by injection (s.c.) 1 ml of a suspension containing 1 mg EA and 200 mg aluminum hydroxide in saline. Simultaneously, they received an injection (i.p.) of 0.5 ml of B. pertussis vaccine. They were used between days 14 and 18 postsensitization. In order to eliminate the serotonin component of the response, rats were pretreated intravenously 5 minutes prior to aerosol challenge with […] methylserzide. Rats were then exposed to an aerosol of 3% EA in saline for exactly 1 minute, then their respiratory profiles were recorded for a further 25-30 minutes. The duration of continuous dyspnoea was measured from the respiratory recordings.
Compounds were generally administered either intraperitoneally 1 hour prior to challenge or orally 11/2 hours prior to challenge. They were either dissolved in dimethylsulfoxide or suspended in 0.1% methocel and 0.5% Tween 80. The volume injected has 2 ml kg^-1 (intraperitoneally) or 10 ml kg^-1 (orally). Prior to oral treatment rats were starved overnight. Their activity was determined in terms of their ability to decrease the duration of symptoms of dyspnoea in comparison with a group of vehicle-treated controls. Usually, a compound was evaluated at a series of doses and an ED50 was determined. This was defined as the dose (mg/kg) which would inhibit the duration of symptoms by 50%.

[4] = system: PAF-induced hyperalgesia in Sprague-Dawley rats; test: PAF-induced hyperalgesia assay (vocalization threshold, rat paw); assay type: in vivo; details: po, read-out: PAF Induced Hyperalgesia Assay % inhibition
Description: Female Sprague-Dawley rats, 35-40 g were fasted overnight. Platelet activating factor, PAF, (L-lecithin B-acetyl O-alkyl) 1 μg/0.1 ml was given by subplantar injection in the rat paw. The compounds to be evaluated were homogenized in aqueous Vehicle (0.9% benzyl alcohol, 0.5% Tween 80 and 0.4% methylcellulose) and administered orally in a volume of 0.1 ml, 30 minutes prior to PAF.
Animals were tested 1, 2, 3 and 4 hours after PAF administration. The vocalization threshold, defined as the pressure (mm Hg) needed to evoke a squeak response, was recorded for both the injected and contralateral paw. No animal was subjected to pressure greater than 60 mm Hg. Hyperalgesia is defined as a decrease in vocalization threshold as compared to a normal paw. Percent inhibition of hyperalgesia was calculated as the proportion of animals with vocalization thresholds greater than 200% of controls.

[5] = mouse peritoneal macrophages, zymosan
[6] = at 10 μg/ml, read-out: In Vitro Antigen Challenge % Inhibition

IC50 [1]: 0.01 to 0.1 µg/mL (≈ 0.0379 to 0.379 µM)
SMILES: COc1ccc2c(c1Cl)Sc1ccccc1N2 [Compound 12]
inhibition at 1 µg/mL ([2]; at 1 μg/ml, read-out: In Vitro Antigen Challenge % Inhibition): 60%

IC50 [3, 5]: 0.12 µg/mL
SMILES: COc1ccc2c(c1)Sc1cc(Cl)ccc1N2 [Compound 13]
inhibition at 10 µg/mL [2, 6]: 22%

SMILES: CC(=O)Oc1ccc2c(c1Cl)Sc1ccccc1N2C(C)=O
inhibition in vivo at 3 mg/kg (asthmatic rats): 58%

IC50 [3, 5]: 0.1 µg/mL
SMILES: FC(F)(F)c1ccc2c(c1)Nc1ccccc1S2 [Compound 5]
inhibition at 10 µg/mL [2, 6]: 7%

SMILES: COc1ccc2c(c1Cl)[S+]([O-])c1cc(F)ccc1N2C (stereo not drawn)
inhibition in vivo at 3 mg/kg (asthmatic rats): 52%

IC50 [3, 5]: 0.01 to 0.1 µg/mL | IC50 [1]: 0.005 µg/mL (≈ 0.0194 µM)
SMILES: CC(=O)Oc1ccc2c(c1)Sc1ccccc1N2 [Compound 7]
inhibition at 10 µg/mL [2, 6]: 60%

SMILES: COc1ccc2c(c1Cl)Oc1ccccc1N2C
inhibition in vivo at 0.3 mg/kg (asthmatic rats; 0.3 mg/kg p.o.): 49%

IC50 [1]: 0.05 to 0.5 µg/mL (≈ 0.232 to 2.32 µM)
SMILES: Oc1cccc2c1Nc1ccccc1S2 [Compound 18]
inhibition at 10 µg/mL [2, 6]: 3%

IC50 [3, 5]: 0.01 to 0.1 µg/mL | IC50 [1]: 0.005 to 0.05 µg/mL (≈ 0.0186 to 0.186 µM)
SMILES: Clc1ccc2c(c1)Sc1cc(Cl)ccc1N2 [Compound 14]
inhibition at 10 µg/mL [2, 6]: 1%

IC50 [1]: 0.005 to 0.05 µg/mL (≈ 0.0156 to 0.156 µM)
SMILES: CC(C)C(=O)Oc1ccc2c(c1Cl)Sc1ccccc1N2 [Compound 20]
inhibition at 10 µg/mL [2, 6]: 65%

SMILES: COc1ccc2c(c1Cl)Sc1ccccc1N2C(C)=O [drawing 70]
inhibition in vivo at 1.5 mg/kg (asthmatic rats): 59% | responders at 0.01 mg/kg ([4]; 0.01 mg/kg p.o.): 50%

SMILES: O=S1(=O)c2ccccc2Nc2ccc(O)c(O)c21
inhibition in vivo at 1.5 mg/kg (asthmatic rats): 65%

IC50 [3, 5]: 1 µg/mL | IC50 [1]: 5 µg/mL (≈ 18 µM)
SMILES: COc1ccc2c(c1Cl)Sc1ccccc1N2C [Compound 26]
inhibition at 10 µg/mL [2, 6]: 3%

IC50 [1]: 0.01 µg/mL (≈ 0.0282 µM)
SMILES: COc1ccc2c(c1)Sc1c(cc(OC)c(O)c1Br)N2 [Compound 16]

IC50 [1]: 0.005 µg/mL (≈ 0.0182 µM)
SMILES: CC(=O)Oc1ccc2c(c1)Sc1cc(F)ccc1N2 [Compound 19]

IC50 [1]: 0.05 to 0.5 µg/mL (≈ 0.199 to 1.99 µM)
SMILES: FC(F)(F)c1ccc2c(c1)Nc1ccccc1O2 [Compound 23]
inhibition at 3 µg/mL ([2]; at 3 μg/ml): 40%

SMILES: c1ccc2c(c1)Nc1ccccc1S2 [drawing 34]
IC50 ([3]; Mus musculus): 0.06 µg/mL | IC50 [1]: 0.4 µg/mL (≈ 2.01 µM) | inhibition at 10 µg/mL ([2]; read-out: In Vitro Antigen Challenge % Inhibition): 100%

SMILES: COc1ccc2c(c1)Sc1c(cc(OC)c(O)c1Br)N2C(=O)OC(C)OC(C)=O (stereo not drawn)
inhibition in vivo at 5 mg/kg (asthmatic rats; 5.0 mg/kg p.o.): 42% | responders at 3 mg/kg ([4]; 3 mg/kg p.o.): 60%

SMILES: COc1ccc2c(c1)Sc1c(cc(OC)c(O)c1Br)N2C(C)=O
inhibition in vivo at 1.5 mg/kg (asthmatic rats): 78% | responders at 0.1 mg/kg ([4]; 0.1 mg/kg p.o.): 60%
